Results taken from US20100009956A1, “NOVEL SUBSTITUTED PYRIMIDINES AS CYSTEINE PROTEASE INHIBITORS” (Glaxo Group Limited , a corporation, priority 2006, published 2010).
Structures can show the parent of a compound that is named as a salt. Where two headings read alike, the source gives them in different places.

Experiments:
[1] = test system: Plasmodium falciparum parasite; test: Whole cell assay (assay 2); assay type: cell-based
Text: Assay 2) Determination of Whole Cell Activity Against the Plasmodium falciparum Parasite
Compounds can be evaluated for whole cell actvity against the Plasmodium falciparum parasite according to the procedure described in Sijwali S. and Rosenthal P. J., (2004) Proceedings of the National Academy of Sciences of the United States of America (PNAS) 101 (13), 4384-4389 (see in particular “Measurement of Parasite Growth rates and Inhibitor Sensitivity” on page 4385); IC50 values can be calculated as described in Singh A. and Rosenthal P. J., (2001) Antimicrobial Agents and Chemotherapy 45(3), 949-951 (see in particular page 950, first column); synchronised parasites can be prepared as described in Divo A. A. et al., (1985) Protozool. 32, 59-64.

Cathepsin S = Cathepsin S (Homo sapiens, UniProt P25774); test: Cathepsin S enzymatic assay (assay 1); assay type: biochemical; conditions: human recombinant enzyme, KQKLR-AMC substrate, pH 6.5
Experimental: Assay 1) Determination of Falcipain-2, Falcipain-3, Vivapain-2, Cathepsin K Cathepsin S, Cathepsin L, and Cathepsin B Proteolytic Catalytic Activity
Assays for Falcipain-2, Falcipain-3, and Vivapain-2 are carried out with parasitic recombinant enzymes. Cathepsins K, S, L, and B are carried out with human recombinant enzymes. Standard assay conditions for the determination of kinetic constants used a fluorogenic peptide substrate, typically H-D-VLR-AFC (Falcipain-2, Falcipain-3, Vivapain-2), Z-FR-AFC (Cathepsin K, L, B), or KQKLR-AMC (Cathepsin S) and are determined in 100 mM sodium acetate, pH 5.5, containing 10 mM DTT and 0.5 mM CHAPS (Falcipain-2, Falcipain-3, Vivapain-2), and 100 mM sodium acetate, pH 5.5, containing 5 mM L-cysteine, 1 mM CHAPS and 5 mM EDTA (Cathepsin K, L, B), or 50 mM MES, pH 6.5, containing 0.5 mM CHAPS, 10 mM L-CYS, 5 mM EDTA (Cathepsin S). Stock substrate solutions are prepared at 20 mM in DMSO. The activity assays contained 30 uM substrate (Falcipain-2, Falcipain-3, Vivapain-2), 20 uM substrate (Cathepsin K), 25 uM substrate (Cathepsin B), 5 uM substrate (Cathepsin L), and 30 uM substrate (Cathepsin S). All assays contained 1% DMSO. […] All assays are conducted at ambient temperature as end point assays being quenched after 60 minutes with the exception of Cathepsin S at 90 minutes, with 16.6 uM E-64 in 1% DMSO. Product formation (AFC or AMC) is determined from fluorescence (excitation at 405 nm; emission at 530 nm, AFC, or excitation at 360 nm; emission at 460 nm, AMC) monitored with a LJL Aquest (Molecular Devices) fluorescent plate reader. In the case of kinetic reads (used in mechanism of action studies), the reaction is not quenched but is read in the plate reader every 3 minutes for approximately 90 minutes. In addition, the mechanism of action studies for Falcipain-2 utilize Z-LR-AMC as the substrate. Product formation is determined from the fluorescence of AMC, measured with a LJL Acquest (Molecular Devices) fluorescent plate reader (excitation at 360 nm; emission at 460 nm).
Potential inhibitors are evaluated using the quenched read (endpoint) method. Assays are carried out in the presence of variable concentrations of test compound. Reactions are initiated by addition of enzyme and substrate to wells containing inhibitor stamped in 100% DMSO. For endpoint assays, the reaction is quenched with the addition of E64. Dose response data is fit to an IC50 curve with preset fitting tools according to equation 1:
y=a+(b−a)/(1+(10^x/10^c)^d) (1)
where y is the response at a particular inhibitor concentration x, a is the minimum response value, b is the maximum response value, c is the IC50, and d is the slope of the IC50 curve. Assuming the compound is a competitive inhibitor, the apparent KI can be calculated from IC50, as shown in equation 2: […]

Cathepsin K = target: T1, Cathepsin K (Homo sapiens, UniProt P43235); test: Cathepsin K enzymatic assay (assay 1); assay type: biochemical; conditions: human recombinant enzyme, Z-FR-AFC substrate, pH 5.5
T1 sequence (P43235 115-329): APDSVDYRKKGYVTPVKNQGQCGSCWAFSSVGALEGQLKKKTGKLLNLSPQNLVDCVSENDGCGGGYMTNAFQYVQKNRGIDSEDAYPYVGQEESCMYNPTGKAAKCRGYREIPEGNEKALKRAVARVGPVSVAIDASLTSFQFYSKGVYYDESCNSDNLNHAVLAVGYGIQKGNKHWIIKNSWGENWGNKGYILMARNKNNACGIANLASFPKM
Method in brief: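 Human recombinant cathepsin K was assayed with the fluorogenic substrate Z-FR-AFC at 20 uM in 100 mM sodium acetate, pH 5.5, with 5 mM L-cysteine, 1 mM CHAPS, 5 mM EDTA and 1% DMSO. Enzyme plus substrate was added to wells holding inhibitor in DMSO. After 60 minutes at ambient temperature, 16.6 uM E-64 quenched the reaction. AFC fluorescence (excitation 405 nm, emission 530 nm) was read, and IC50 came from a four-parameter dose-response fit.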

Falcipain-3 = Falcipain-3 (Plasmodium falciparum, UniProt Q8IIL0); test: Falcipain-3 enzymatic assay (assay 1); assay type: biochemical
Method in brief: (§1)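 Recombinant parasite enzyme with 30 uM H-D-VLR-AFC in 100 mM sodium acetate pH 5.5, 10 mM DTT, 0.5 mM CHAPS, 1% DMSO, ambient temperature. Endpoint after 60 minutes, quenched with 16.6 uM E-64; AFC fluorescence (ex 405/em 530). IC50 from four-parameter fit, apparent KI assuming competitive inhibition.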

Falcipain-2 = Falcipain-2 (Plasmodium falciparum, UniProt Q8I6U4); test: Falcipain-2 enzymatic assay (assay 1); assay type: biochemical
Method in brief: as §1

[2] = parasitic recombinant enzyme, H-D-VLR-AFC substrate, pH 5.5, endpoint read, read-out: Falcipain-3 IC50
[3] = parasitic recombinant enzyme, H-D-VLR-AFC substrate, pH 5.5, endpoint read, read-out: Falcipain-2 IC50

Chain of Falcipain-2 (Q8I6U4 244-484): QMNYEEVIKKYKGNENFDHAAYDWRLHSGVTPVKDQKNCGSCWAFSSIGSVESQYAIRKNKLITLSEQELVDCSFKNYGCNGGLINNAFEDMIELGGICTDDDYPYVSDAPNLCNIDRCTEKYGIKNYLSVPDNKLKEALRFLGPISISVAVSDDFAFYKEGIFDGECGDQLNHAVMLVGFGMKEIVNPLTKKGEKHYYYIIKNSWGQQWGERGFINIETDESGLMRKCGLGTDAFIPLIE
Chain of Cathepsin S (P25774 115-331): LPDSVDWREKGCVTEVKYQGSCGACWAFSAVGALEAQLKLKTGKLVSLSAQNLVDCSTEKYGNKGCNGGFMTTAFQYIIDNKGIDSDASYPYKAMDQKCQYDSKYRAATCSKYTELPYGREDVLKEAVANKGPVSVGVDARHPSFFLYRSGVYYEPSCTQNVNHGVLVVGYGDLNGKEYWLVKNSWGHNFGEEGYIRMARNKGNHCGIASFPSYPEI
Chain of Falcipain-3 (Q8IIL0 243-492): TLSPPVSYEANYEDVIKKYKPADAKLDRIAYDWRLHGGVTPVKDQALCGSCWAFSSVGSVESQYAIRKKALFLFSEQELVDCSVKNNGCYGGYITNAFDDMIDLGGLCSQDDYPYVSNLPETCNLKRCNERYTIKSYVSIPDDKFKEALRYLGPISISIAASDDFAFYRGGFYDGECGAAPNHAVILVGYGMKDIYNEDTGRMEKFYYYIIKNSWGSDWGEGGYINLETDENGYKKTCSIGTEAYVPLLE

Molecule: CN1CCN(Cc2ccc(C(=O)NN(c3nc(C#N)ncc3Br)C3CCCC3)cc2)CC1 [Example 1A, N′-(5-bromo-2-cyano-4-pyrimidinyl)-N′-cyclopentyl-4-[(4-methyl-1-piperazinyl)methyl]benzohydrazide]
- IC50 [1]: 2.5 to 15 nM
- IC50 (Cathepsin S): < 1000 nM

Molecule: CN1CCN(Cc2ccc(C(=O)NN(c3nc(C#N)ncc3Br)C3CCCC3)cc2)CC1 [Example 1B, N′-(5-bromo-2-cyano-4-pyrimidinyl)-N′-cyclopentyl-4-[(4-methyl-1-piperazinyl)methyl]benzohydrazide hydrochloride]
- IC50 (Cathepsin K): < 1.5 nM
- IC50 ([1]; hydrochloride): 2.5 to 15 nM
- IC50 (Cathepsin S): < 200 nM

Molecule: CN1CCN(Cc2ccc(C(=O)NN(c3nc(C#N)ncc3Br)C3CCCCC3)cc2)CC1 [Example 16, N′-(5-bromo-2-cyano-4-pyrimidinyl)-N′-cyclohexyl-4-[(4-methyl-1-piperazinyl)methyl]benzohydrazide trifluoroacetate]
- IC50 (Cathepsin K): < 1.5 nM
- IC50 (Falcipain-3): 2.5 to 15 nM
- IC50 ([1]; Plasmodium falciparum): 15 to 150 nM
- IC50 (Cathepsin S): < 1000 nM
- IC50 (Falcipain-2): < 1 nM

Molecule: CN1CCN(C2CCN(Cc3ccc(C(=O)NN(c4nc(C#N)ncc4Br)C4CCOCC4)cc3)CC2)CC1 [Example 29, N′-(5—Bromo-2-cyano-4-pyrimidinyl)-4-{[4-(4-methyl-1-piperazinyl)-1-piperidinyl]methyl}-N′-(tetrahydro-2H-pyran-4-yl)benzohydrazide trifluoroacetate]
- IC50 (Cathepsin K): < 17 nM
- IC50 (Falcipain-3; [2]): 2.5 to 15 nM
- IC50 ([1]; Plasmodium falciparum): 2.5 to 15 nM
- IC50 (Falcipain-2): < 1 nM

Molecule: CN1CCN(C2CCN(Cc3ccc(C(=O)NN(c4nc(C#N)ncc4Cl)C4CCOCC4)cc3)CC2)CC1 [Example 34, N′-(5-Chloro-2-cyano-4-pyrimidinyl)-4-{[4-(4-methyl-1-piperazinyl)-1-piperidinyl]methyl}-N′-(tetrahydro-2H-pyran-4-yl)benzohydrazide trifluoroacetate]
- IC50 (Cathepsin K): < 17 nM
- IC50 (Falcipain-3): 2.5 to 15 nM
- IC50 ([1]; Plasmodium falciparum): 15 to 150 nM
- IC50 (Falcipain-2): 1 to 2.5 nM

Molecule: CN1CCN(Cc2ccc(-c3cncc(C(=O)NN(c4nc(C#N)ncc4Br)C4CCCC4)c3)cc2)CC1 [Example 45, N′-(5-bromo-2-cyano-4-pyrimidinyl)-N′-cyclopentyl-5-{4-[(4-methyl-1-piperazinyl)methyl]phenyl}-3-pyridinecarbohydrazide trifluoroacetate]
- IC50 (Cathepsin K): < 1.5 nM
- IC50 (Falcipain-3): 2.5 to 15 nM
- IC50 ([1]; Plasmodium falciparum): 2.5 to 15 nM
- IC50 (Cathepsin S): < 200 nM
- IC50 (Falcipain-2): < 1 nM

Molecule: CC(=O)N1CCC(N(NC(=O)OC(C)(C)C)c2nc(C#N)ncc2Br)CC1 [Example 79, 1,1-dimethylethyl 2-(1-acetyl-4-piperidinyl)-2-(5-bromo-2-cyano-4-pyrimidinyl)hydrazinecarboxylate]
- IC50 (Falcipain-3; [2]): 15 to 150 nM
- IC50 ([1]; Plasmodium falciparum): 15 to 150 nM
- IC50 (Cathepsin S): < 200 nM
- IC50 (Falcipain-2): < 1 nM

Molecule: CCCN1CCN(c2ccc(C(=O)NN(c3nc(C#N)ncc3Br)C3CCCCC3)cc2)CC1 [Example 80, N′-(5-bromo-2-cyano-4-pyrimidinyl)-N′-cyclohexyl-4-(4-propyl-1-piperazinyl)benzohydrazide trifluoroacetate]
- IC50 (Cathepsin K): < 1.5 nM
- IC50 (Falcipain-3): 15 to 150 nM
- IC50 ([1]; Plasmodium falciparum): 150 to 250 nM
- IC50 (Cathepsin S): < 200 nM
- IC50 (Falcipain-2): < 1 nM

Molecule: CC(C)(C)N(CCO)Cc1ccc(C(=O)NN(c2nc(C#N)ncc2Cl)C2CCCC2)cc1 [Example 82, N′-(5-chloro-2-cyano-4-pyrimidinyl)-N′-cyclopentyl-4-{[(1,1-dimethylethyl)(2-hydroxyethyl)amino]methyl}benzohydrazide trifluoroacetate]
- IC50 (Falcipain-3): 2.5 to 15 nM
- IC50 ([1]; Plasmodium falciparum): 2.5 to 15 nM
- IC50 (Falcipain-2): < 1 nM

Molecule: CN(Cc1ccc(C(=O)NN(c2nc(C#N)ncc2Cl)C2CCCC2)cc1)CC1OCCO1 [Example 83, N′-(5-chloro-2-cyano-4-pyrimidinyl)-N′-cyclopentyl-4-{[(1,3-dioxolan-2-ylmethyl)(methyl)amino]methyl}benzohydrazide trifluoroacetate]
- IC50 (Falcipain-3): 1 to 2.5 nM
- IC50 ([1]; Plasmodium falciparum): 150 to 250 nM
- IC50 (Falcipain-2): < 1 nM

Molecule: CN(CCN(C)C(=O)OC(C)(C)C)Cc1ccc(C(=O)NN(c2nc(C#N)ncc2Cl)C2CCCC2)cc1 [Example 84, 1,1-dimethylethyl{2-[[(4-{[2-(5-chloro-2-cyano-4-pyrimidinyl)-2-cyclopentylhydrazino]carbonyl}phenyl)methyl](methyl)amino]ethyl}methylcarbamate trifluoroacetate]
- IC50 (Falcipain-3): 2.5 to 15 nM
- IC50 ([1]; Plasmodium falciparum): 150 to 250 nM
- IC50 (Cathepsin S): < 1000 nM
- IC50 (Falcipain-2): < 1 nM

Molecule: CC(C)N(CCN(C(=O)OC(C)(C)C)C(C)C)Cc1ccc(C(=O)NN(c2nc(C#N)ncc2Cl)C2CCCC2)cc1 [Example 85, 1,1-dimethylethyl{2-[[(4-{[2-(5-chloro-2-cyano-4-pyrimidinyl)-2-cyclopentylhydrazino]carbonyl}phenyl)methyl](1-methylethyl)amino]ethyl}(1-methylethyl)carbamate trifluoroacetate]
- IC50 (Falcipain-3): 2.5 to 15 nM
- IC50 ([1]; Plasmodium falciparum): 150 to 250 nM
- IC50 (Cathepsin S): < 200 nM
- IC50 (Falcipain-2): < 1 nM

Molecule: N′-(1-acetyl-4-piperidinyl)-N′-(5-bromo-2-cyano-4-pyrimidinyl)-4-[(4-methyl-1-piperazinyl)methyl]benzohydrazide trifluoroacetate [Example 37]
- IC50 (Falcipain-3; [2]): 15 to 150 nM
- IC50 [1]: 15 to 150 nM
- IC50 (Falcipain-2; [3]): < 1 nM

Molecule: N′-(5-chloro-2-cyano-4-pyrimidinyl)-N′-cyclopentyl-4-{[methyl(3-methylbutyl)amino]methyl}benzohydrazide trifluoroacetate [Example 63]
- IC50 (Falcipain-3; [2]): 2.5 to 15 nM
- IC50 [1]: 2.5 to 15 nM
- IC50 (Falcipain-2; [3]): < 1 nM
